Source: the supplement of paper PMC8612539
Converted amounts (≈) assume the structure as drawn.

Test system: Histophilus somni
Test: minimum inhibitory concentration (MIC)
Description: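 Broth microdilution MIC (Sensititre BOPO7F bovine plate, CLSI methods) of 19 antimicrobials against field isolates of P. multocida, M. haemolytica, H. somni (deep nasopharyngeal swabs) and E. coli, Enterococcus spp. (rectal swabs) from weaned dairy heifers. Incubation 16-24 h at 35 C. MIC is the lowest concentration preventing visible growth. Values with <= or > lie at the tested range limits. Trimethoprim-sulfamethoxazole is given as the trimethoprim component of a 1:19 mixture.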

CNC(C)C1CCC(N)C(OC2C(N)CC(N)C(OC3OCC(C)(O)C(NC)C3O)C2O)O1 (configuration not stated) [Gentamicin]
Conditions | minimum inhibitory concentration [µg/mL]
isolate (source animal id): 3 | 8 (≈ 16.8 µM)
isolate (source animal id): 4 | 8 (≈ 16.8 µM)
isolate (source animal id): 7 | 4 (≈ 8.38 µM)
isolate (source animal id): 14 | 4 (≈ 8.38 µM)
isolate (source animal id): 15 | 16 (≈ 33.5 µM)
isolate (source animal id): 17 | ≤ 1
isolate (source animal id): 18 | 16 (≈ 33.5 µM)
isolate (source animal id): 20 | ≤ 1
isolate (source animal id): 23 | 16 (≈ 33.5 µM)
isolate (source animal id): 45 | 4 (≈ 8.38 µM)
isolate (source animal id): 53 | 4 (≈ 8.38 µM)
isolate (source animal id): 83 | 16 (≈ 33.5 µM)
isolate (source animal id): 88 | 4 (≈ 8.38 µM)
isolate (source animal id): 92 | 16 (≈ 33.5 µM)
isolate (source animal id): 93 | 4 (≈ 8.38 µM)
isolate (source animal id): 99 | 16 (≈ 33.5 µM)
isolate (source animal id): 100 | 16 (≈ 33.5 µM)
isolate (source animal id): 105 | 16 (≈ 33.5 µM)
isolate (source animal id): 107 | 16 (≈ 33.5 µM)
isolate (source animal id): 108 | 16 (≈ 33.5 µM)
isolate (source animal id): 109 | 16 (≈ 33.5 µM)
isolate (source animal id): 110 | 16 (≈ 33.5 µM)
isolate (source animal id): 117 | 4 (≈ 8.38 µM)
isolate (source animal id): 121 | 4 (≈ 8.38 µM)
isolate (source animal id): 123 | 8 (≈ 16.8 µM)
isolate (source animal id): 124 | 8 (≈ 16.8 µM)
isolate (source animal id): 127 | 8 (≈ 16.8 µM)
isolate (source animal id): 128 | 8 (≈ 16.8 µM)
isolate (source animal id): 130 | > 16
isolate (source animal id): 132 | 8 (≈ 16.8 µM)
isolate (source animal id): 135 | 8 (≈ 16.8 µM)
isolate (source animal id): 140 | 8 (≈ 16.8 µM)
isolate (source animal id): 141 | 4 (≈ 8.38 µM)
isolate (source animal id): 142 | 8 (≈ 16.8 µM)
isolate (source animal id): 144 | 8 (≈ 16.8 µM)
isolate (source animal id): 146 | > 16
isolate (source animal id): 147 | 16 (≈ 33.5 µM)
isolate (source animal id): 151 | 8 (≈ 16.8 µM)
isolate (source animal id): 153 | 8 (≈ 16.8 µM)
isolate (source animal id): 154 | 16 (≈ 33.5 µM)
isolate (source animal id): 156 | 16 (≈ 33.5 µM)
isolate (source animal id): 157 | 8 (≈ 16.8 µM)
isolate (source animal id): 176 | ≤ 1
isolate (source animal id): 183 | ≤ 1
isolate (source animal id): 186 | ≤ 1
isolate (source animal id): 196 | 8 (≈ 16.8 µM)
isolate (source animal id): 198 | 8 (≈ 16.8 µM)
isolate (source animal id): 200 | 8 (≈ 16.8 µM)
isolate (source animal id): 206 | 8 (≈ 16.8 µM)
isolate (source animal id): 208 | 8 (≈ 16.8 µM)
isolate (source animal id): 210 | 8 (≈ 16.8 µM)
isolate (source animal id): 212 | 4 (≈ 8.38 µM)
isolate (source animal id): 215 | 8 (≈ 16.8 µM)
isolate (source animal id): 216 | 8 (≈ 16.8 µM)
isolate (source animal id): 218 | 8 (≈ 16.8 µM)
isolate (source animal id): 219 | 8 (≈ 16.8 µM)
isolate (source animal id): 224 | 8 (≈ 16.8 µM)
isolate (source animal id): 228 | 2 (≈ 4.19 µM)
isolate (source animal id): 230 | ≤ 1
isolate (source animal id): 233 | 2 (≈ 4.19 µM)
isolate (source animal id): 238 | ≤ 1
isolate (source animal id): 239 | 2 (≈ 4.19 µM)
isolate (source animal id): 241 | 2 (≈ 4.19 µM)
isolate (source animal id): 242 | 2 (≈ 4.19 µM)
isolate (source animal id): 243 | ≤ 1
isolate (source animal id): 245 | ≤ 1
isolate (source animal id): 246 | 2 (≈ 4.19 µM)
isolate (source animal id): 247 | ≤ 1
isolate (source animal id): 248 | ≤ 1
isolate (source animal id): 250 | ≤ 1
isolate (source animal id): 251 | ≤ 1
isolate (source animal id): 252 | 2 (≈ 4.19 µM)
isolate (source animal id): 254 | ≤ 1
isolate (source animal id): 258 | 4 (≈ 8.38 µM)
isolate (source animal id): 259 | 8 (≈ 16.8 µM)
isolate (source animal id): 262 | 4 (≈ 8.38 µM)
isolate (source animal id): 264 | 4 (≈ 8.38 µM)
isolate (source animal id): 265 | > 16
isolate (source animal id): 266 | 8 (≈ 16.8 µM)
isolate (source animal id): 267 | 8 (≈ 16.8 µM)
isolate (source animal id): 269 | 4 (≈ 8.38 µM)
isolate (source animal id): 271 | 8 (≈ 16.8 µM)
isolate (source animal id): 272 | > 16
isolate (source animal id): 274 | 4 (≈ 8.38 µM)
isolate (source animal id): 276 | ≤ 1
isolate (source animal id): 278 | 8 (≈ 16.8 µM)
isolate (source animal id): 280 | > 16
isolate (source animal id): 281 | 8 (≈ 16.8 µM)
isolate (source animal id): 283 | 4 (≈ 8.38 µM)
isolate (source animal id): 288 | 16 (≈ 33.5 µM)
isolate (source animal id): 291 | 8 (≈ 16.8 µM)
isolate (source animal id): 292 | 16 (≈ 33.5 µM)
isolate (source animal id): 296 | 8 (≈ 16.8 µM)
isolate (source animal id): 306 | 8 (≈ 16.8 µM)
isolate (source animal id): 336 | 16 (≈ 33.5 µM)
isolate (source animal id): 337 | 16 (≈ 33.5 µM)
isolate (source animal id): 341 | 8 (≈ 16.8 µM)
